Columns and labels:
[1] = DRUGMATRIX: beta-Lactamase enzyme inhibition (substrate: Nitrocefin); design: species or system Bacillus cereus; settings: Not Active = under 50% inhibition at 10 µM
[2] = biological target: T1, Adenosine receptor A1 (Homo sapiens, UniProt P30542); format: cell membranes, Membrane; settings: cho;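 also: radioligand binding assay at the adenosine A1 receptor, with DPCPX serving as the labelled ligand; in other assays of this panel Not Active means under 50% inhibition at 10 µM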
T1 sequence (P30542 whole entry): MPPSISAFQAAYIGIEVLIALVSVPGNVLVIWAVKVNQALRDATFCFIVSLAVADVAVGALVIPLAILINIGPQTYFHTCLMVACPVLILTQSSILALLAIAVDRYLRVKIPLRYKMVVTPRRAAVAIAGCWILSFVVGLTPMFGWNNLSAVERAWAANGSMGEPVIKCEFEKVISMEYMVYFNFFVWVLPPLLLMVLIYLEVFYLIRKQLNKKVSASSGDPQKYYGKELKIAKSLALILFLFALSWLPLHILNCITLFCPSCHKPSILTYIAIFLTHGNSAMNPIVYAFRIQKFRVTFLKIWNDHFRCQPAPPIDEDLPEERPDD

[3] = biological target: Sodium-dependent dopamine transporter (Homo sapiens, UniProt Q01959); experiment: DRUGMATRIX: Dopamine Transporter radioligand binding (ligand: [125I] RTI-55); format: cell membranes, CHO-K1, Membrane; settings: Not Active = under 50% inhibition at 10 µM
[4] = DRUGMATRIX: Phorbol Ester radioligand binding (ligand: [3H] PDBu); format: cell membranes, Mus musculus, ICR, Brain, Membrane; settings: Not Active = under 50% inhibition at 10 µM
[5] = biological target: Vasopressin V1a receptor (Homo sapiens, UniProt P37288); format: cell membranes, Membrane; settings: hek293; also: in other assays of this panel Not Active means under 50% inhibition at 10 µM
[6] = biological target: T2, Neuropeptide Y receptor type 1 (Homo sapiens, UniProt P25929); format: cell membranes, Membrane; settings: sk-n-mc; also: in other assays of this panel Not Active means under 50% inhibition at 10 µM
T2 sequence (P25929 whole entry): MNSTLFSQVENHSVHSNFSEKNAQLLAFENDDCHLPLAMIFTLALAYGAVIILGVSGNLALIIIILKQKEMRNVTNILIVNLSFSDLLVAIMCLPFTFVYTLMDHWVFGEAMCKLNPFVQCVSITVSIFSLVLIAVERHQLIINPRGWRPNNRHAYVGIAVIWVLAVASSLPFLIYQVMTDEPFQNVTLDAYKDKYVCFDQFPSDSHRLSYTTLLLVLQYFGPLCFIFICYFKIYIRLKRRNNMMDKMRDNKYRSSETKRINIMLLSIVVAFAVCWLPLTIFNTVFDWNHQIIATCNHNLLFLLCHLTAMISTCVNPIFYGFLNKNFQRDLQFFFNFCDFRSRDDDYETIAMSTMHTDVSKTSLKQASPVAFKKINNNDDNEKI

[7] = biological target: T3, Amine oxidase [flavin-containing] A (Homo sapiens, UniProt P21397); experiment: DRUGMATRIX: Monoamine Oxidase MAO-A enzyme inhibition (substrate: Kynuramine); design: species or system BTI-TN-5B1-4; settings: bti-tn-5b1-4; Not Active = under 50% inhibition at 10 µM
T3 sequence (P21397 whole entry): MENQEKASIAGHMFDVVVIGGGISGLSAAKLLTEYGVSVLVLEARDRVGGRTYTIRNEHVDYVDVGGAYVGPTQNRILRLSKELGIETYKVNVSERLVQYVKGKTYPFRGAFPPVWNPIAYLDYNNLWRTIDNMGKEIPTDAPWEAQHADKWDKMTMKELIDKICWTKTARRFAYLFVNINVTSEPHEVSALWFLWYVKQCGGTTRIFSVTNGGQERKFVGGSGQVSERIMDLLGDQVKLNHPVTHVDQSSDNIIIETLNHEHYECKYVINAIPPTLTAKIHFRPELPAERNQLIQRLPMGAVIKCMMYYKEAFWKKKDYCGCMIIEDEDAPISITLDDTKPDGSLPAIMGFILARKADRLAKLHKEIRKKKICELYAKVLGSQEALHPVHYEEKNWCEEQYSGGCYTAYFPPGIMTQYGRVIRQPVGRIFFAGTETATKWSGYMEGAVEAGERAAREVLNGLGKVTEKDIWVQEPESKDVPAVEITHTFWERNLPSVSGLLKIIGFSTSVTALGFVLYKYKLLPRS

[8] = biological target: T4, Alpha-1B adrenergic receptor (Rattus norvegicus, UniProt P15823); experiment: DRUGMATRIX: Alpha-1B adrenergic receptor radioligand binding (ligand: prazosin); format: cell membranes, Wistar, Liver, Membrane; settings: Not Active = under 50% inhibition at 10 µM
T4 sequence (P15823 whole entry): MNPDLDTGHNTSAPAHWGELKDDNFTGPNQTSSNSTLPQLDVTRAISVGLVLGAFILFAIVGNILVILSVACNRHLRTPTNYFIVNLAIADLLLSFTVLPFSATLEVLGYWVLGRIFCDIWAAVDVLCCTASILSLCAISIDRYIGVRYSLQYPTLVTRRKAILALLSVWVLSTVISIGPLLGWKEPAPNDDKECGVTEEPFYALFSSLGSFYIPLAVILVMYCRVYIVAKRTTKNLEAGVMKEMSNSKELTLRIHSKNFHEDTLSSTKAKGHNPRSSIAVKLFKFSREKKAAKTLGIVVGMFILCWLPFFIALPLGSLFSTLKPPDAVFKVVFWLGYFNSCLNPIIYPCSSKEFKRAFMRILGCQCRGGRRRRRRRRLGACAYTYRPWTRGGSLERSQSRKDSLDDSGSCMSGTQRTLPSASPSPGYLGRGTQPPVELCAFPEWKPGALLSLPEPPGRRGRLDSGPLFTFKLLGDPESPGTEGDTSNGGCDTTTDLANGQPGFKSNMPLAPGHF

Vasopressin V1a receptor, sequence (P37288 whole entry): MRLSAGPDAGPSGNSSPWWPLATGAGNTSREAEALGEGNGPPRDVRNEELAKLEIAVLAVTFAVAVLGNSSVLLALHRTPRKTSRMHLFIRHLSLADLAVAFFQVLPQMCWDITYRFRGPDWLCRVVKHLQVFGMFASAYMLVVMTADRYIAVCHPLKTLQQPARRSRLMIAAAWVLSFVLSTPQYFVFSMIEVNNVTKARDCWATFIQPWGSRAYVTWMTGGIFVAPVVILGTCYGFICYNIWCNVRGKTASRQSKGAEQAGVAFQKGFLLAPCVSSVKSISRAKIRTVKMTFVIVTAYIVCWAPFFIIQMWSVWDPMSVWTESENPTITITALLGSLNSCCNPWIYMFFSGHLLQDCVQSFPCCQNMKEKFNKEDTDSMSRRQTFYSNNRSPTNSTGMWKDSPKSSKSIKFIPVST
Sodium-dependent dopamine transporter, sequence (Q01959 whole entry): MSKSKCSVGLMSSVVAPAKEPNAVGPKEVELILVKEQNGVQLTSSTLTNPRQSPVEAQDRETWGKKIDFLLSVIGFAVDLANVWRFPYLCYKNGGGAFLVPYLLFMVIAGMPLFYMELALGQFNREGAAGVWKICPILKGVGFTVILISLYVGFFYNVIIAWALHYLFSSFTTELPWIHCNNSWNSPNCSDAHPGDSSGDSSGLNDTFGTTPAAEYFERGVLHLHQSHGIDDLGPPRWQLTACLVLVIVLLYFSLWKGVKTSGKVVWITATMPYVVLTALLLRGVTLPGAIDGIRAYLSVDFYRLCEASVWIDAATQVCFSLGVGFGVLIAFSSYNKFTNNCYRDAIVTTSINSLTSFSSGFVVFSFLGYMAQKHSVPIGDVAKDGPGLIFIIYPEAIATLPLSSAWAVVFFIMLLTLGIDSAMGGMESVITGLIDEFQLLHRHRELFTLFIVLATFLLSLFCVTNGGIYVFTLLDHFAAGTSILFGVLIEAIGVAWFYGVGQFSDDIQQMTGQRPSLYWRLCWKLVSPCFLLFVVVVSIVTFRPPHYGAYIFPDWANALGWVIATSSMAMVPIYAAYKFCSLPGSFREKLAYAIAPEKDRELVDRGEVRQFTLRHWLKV

| Structure (SMILES) | IC50 [1] | Ki [1] | IC50 [2] | IC50 ([3]; cho-k1) | IC50 [4] | Ki [4] | IC50 [5] | IC50 [6] | IC50 [7] | IC50 [8] | IC50 ([3]; read-out: IC50) [µM] | Ki ([3]; read-out: Ki) [µM] |
| --- | --- | --- | --- | --- | --- | --- | --- | --- | --- | --- | --- | --- |
| COc1ccc2c(c1)c(CC(=O)O)c(C)n2C(=O)c1ccc(Cl)cc1 [INDOMETHACIN] | Not Active | Not Active | Not Active | Not Active | Not Active | Not Active | Not Active | Not Active | Not Active | Not Active | – | – |
| CC(C)[C@H]1CC[C@H](C(=O)N[C@H](Cc2ccccc2)C(=O)O)CC1 [NATEGLINIDE] | Not Active | Not Active | Not Active | Not Active | Not Active | Not Active | Not Active | Not Active | Not Active | Not Active | – | – |
| CCCC(=O)Nc1ccc(OCC(O)CNC(C)C)c(C(C)=O)c1 (stereo unspecified) [ACEBUTOLOL] | Not Active | Not Active | Not Active | Not Active | Not Active | Not Active | Not Active | Not Active | Not Active | Not Active | – | – |
| C[C@]12CC[C@@H]3c4ccc(OC(=O)c5ccccc5)cc4CC[C@H]3[C@@H]1CC[C@@H]2O [ESTRADIOL BENZOATE] | Not Active | Not Active | Not Active | Not Active | Not Active | Not Active | Not Active | Not Active | Not Active | Not Active | – | – |
| CC1(C)O[C@@H]2C[C@H]3[C@@H]4C[C@H](F)C5=CC(=O)C=C[C@]5(C)[C@H]4[C@@H](O)C[C@]3(C)[C@]2(C(=O)CO)O1 [FLUNISOLIDE] | Not Active | Not Active | Not Active | Not Active | Not Active | Not Active | Not Active | Not Active | Not Active | Not Active | – | – |
| CC1=C(C(=O)O)N2C(=O)[C@@H](NC(=O)[C@H](N)c3ccccc3)[C@H]2SC1 [CEPHALEXIN ANHYDROUS] | Not Active | Not Active | Not Active | Not Active | Not Active | Not Active | Not Active | Not Active | Not Active | Not Active | – | – |
| COC(=O)C1=C(C)NC(C)=C(C(=O)OCC(C)C)C1c1ccccc1[N+](=O)[O-] (stereo unspecified) [NISOLDIPINE] | Not Active | Not Active | Not Active | Not Active | Not Active | Not Active | Not Active | Not Active | Not Active | Not Active | – | – |
| CC(=O)Nc1ccc(O)cc1 [ACETAMINOPHEN] | Not Active | Not Active | Not Active | Not Active | Not Active | Not Active | Not Active | Not Active | Not Active | Not Active | – | – |
| CCc1c2c(nc3ccc(OC(=O)N4CCC(N5CCCCC5)CC4)cc13)-c1cc3c(c(=O)n1C2)COC(=O)[C@]3(O)CC [IRINOTECAN] | Not Active | Not Active | Not Active | Not Active | Not Active | Not Active | Not Active | Not Active | Not Active | Not Active | – | – |
| C[C@]12CC[C@@H]3c4ccc(O)cc4CC[C@H]3[C@@H]1CC[C@@H]2O [ESTRADIOL] | Not Active | Not Active | Not Active | – | Not Active | Not Active | Not Active | Not Active | Not Active | Not Active | 14.9 | 11.8 |
| C#C[C@]1(OC(C)=O)CC[C@H]2[C@@H]3CCC4=CC(=O)CC[C@@H]4[C@H]3CC[C@@]21C [NORETHINDRONE ACETATE] | Not Active | Not Active | Not Active | Not Active | Not Active | Not Active | Not Active | Not Active | Not Active | Not Active | – | – |

Source: ChEMBL document CHEMBL1909046, “DrugMatrix in vitro pharmacology data”
